Test results: the NIST ThermoML archive (doi:10.1021/je100369a)

Experiments:
[1] = refractive index (Na D-line) (dimensionless); settings: 101.33 kPa, Liquid, Standard Abbe refractometry
[2] = 101.33 kPa, Liquid
[3] = mn = molality of the nth substance listed, in mol/kg; settings: 101 kPa, Liquid

CN(C)C=O [dimethylformamide]
Settings	mass density, 288.15 K [kg/m3]	mass density, 298.15 K [kg/m3]	mass density, 308.15 K [kg/m3]	mass density, 318.15 K [kg/m3]	refractive index, 288.15 K	refractive index, 298.15 K	refractive index, 308.15 K	refractive index, 318.15 K
[1]	–	–	–	–	1.431	1.4276	1.423	1.418
[2]	953.58	944.06	934.52	924.9	–	–	–	–

Oc1ccccc1C=NCCN=Cc1ccccc1O [2,2'-[ethylenebis(nitrilomethylidyne)]diphenol] + C[S+](C)[O-]
mass density [kg/m3], [3]
Settings	m1 = 0.0098	m1 = 0.03	m1 = 0.0502	m1 = 0.0697	m1 = 0.0903	m1 = 0.1097	m1 = 0.13	m1 = 0.1502	m1 = 0.1701	m1 = 0.1893
288.15 K	1105.42	1105.67	1105.93	1106.18	1106.45	1106.71	1106.99	1107.28	1107.55	1107.81
298.15 K	1095.42	1095.69	1095.96	1096.23	1096.52	1096.79	1097.08	1097.39	1097.66	1097.91
308.15 K	1085.39	1085.68	1085.97	1086.26	1086.56	1086.85	1087.14	1087.45	1087.75	1088.03
318.15 K	1075.36	1075.67	1075.98	1076.28	1076.6	1076.9	1077.22	1077.56	1077.84	1078.13

C[S+](C)[O-] [dimethyl sulfoxide]
Settings	mass density, 288.15 K [kg/m3]	mass density, 298.15 K [kg/m3]	mass density, 308.15 K [kg/m3]	mass density, 318.15 K [kg/m3]	refractive index, 288.15 K	refractive index, 298.15 K	refractive index, 308.15 K	refractive index, 318.15 K
[1]	–	–	–	–	1.4793	1.4752	1.471	1.467
[2]	1105.3	1095.29	1085.25	1075.21	–	–	–	–

Oc1ccccc1C=NCCN=Cc1ccccc1O [2,2'-[ethylenebis(nitrilomethylidyne)]diphenol] + ClCCl
mass density [kg/m3], [3]
Settings	m1 = 0.0306	m1 = 0.049	m1 = 0.0703	m1 = 0.0903	m1 = 0.1103	m1 = 0.1301	m1 = 0.15	m1 = 0.1702	m1 = 0.1911
283.15 K	1342.32	1341.5	1340.58	1339.65	1338.77	1337.88	1337.01	1336.07	1335.14
288.15 K	1333.32	1332.54	1331.67	1330.82	1329.93	1329.12	1328.26	1327.34	1326.47
293.15 K	1324.26	1323.56	1322.69	1321.91	1321.06	1320.31	1319.5	1318.65	1317.78
298.15 K	1315.18	1314.5	1313.71	1312.95	1312.16	1311.43	1310.67	1309.84	1309.07

Oc1ccccc1C=NCCN=Cc1ccccc1O [2,2'-[ethylenebis(nitrilomethylidyne)]diphenol] + CC(=O)N(C)C
mass density [kg/m3], [3]
Settings	m1 = 0.0298	m1 = 0.0503	m1 = 0.0704	m1 = 0.0902	m1 = 0.11	m1 = 0.13	m1 = 0.151	m1 = 0.1699	m1 = 0.1898
288.15 K	946.92	947.9	948.86	949.8	950.76	951.71	952.73	953.61	954.55
298.15 K	937.72	938.72	939.69	940.66	941.6	942.56	943.57	944.49	945.43
308.15 K	928.51	929.52	930.5	931.48	932.43	933.41	934.41	935.35	936.28
318.15 K	919.27	920.29	921.29	922.28	923.25	924.23	925.25	926.19	927.14

Oc1ccccc1C=NCCN=Cc1ccccc1O [2,2'-[ethylenebis(nitrilomethylidyne)]diphenol] + CN(C)C=O
mass density [kg/m3], [3]
Settings	m1 = 0.0302	m1 = 0.049	m1 = 0.0701	m1 = 0.0913	m1 = 0.1101	m1 = 0.1238	m1 = 0.1483	m1 = 0.1702	m1 = 0.1886
288.15 K	954.99	955.87	956.86	957.85	958.72	959.36	960.5	961.48	962.35
298.15 K	945.49	946.39	947.39	948.39	949.27	949.91	951.05	952.08	952.94
308.15 K	935.97	936.88	937.89	938.9	939.79	940.44	941.6	942.63	943.48
318.15 K	926.38	927.29	928.32	929.35	930.25	930.91	932.08	933.14	933.99

ClCCl [dichloromethane]
Settings	mass density, 283.15 K [kg/m3]	mass density, 288.15 K [kg/m3]	mass density, 293.15 K [kg/m3]	mass density, 298.15 K [kg/m3]	refractive index, 283.15 K	refractive index, 288.15 K	refractive index, 293.15 K	refractive index, 298.15 K
[1]	–	–	–	–	1.4305	1.4276	1.4251	1.4219
[2]	1343.65	1334.57	1325.43	1316.27	–	–	–	–

ClC(Cl)Cl [trichloromethane]
Settings	mass density, 283.15 K [kg/m3]	mass density, 288.15 K [kg/m3]	mass density, 293.15 K [kg/m3]	mass density, 298.15 K [kg/m3]	refractive index, 283.15 K	refractive index, 288.15 K	refractive index, 293.15 K	refractive index, 298.15 K
[1]	–	–	–	–	1.45	1.4471	1.4439	1.442
[2]	1496.43	1487.09	1477.68	1468.28	–	–	–	–

CC(=O)N(C)C [N,N-dimethylethanamide]
Settings	mass density, 288.15 K [kg/m3]	mass density, 298.15 K [kg/m3]	mass density, 308.15 K [kg/m3]	mass density, 318.18 K [kg/m3]	refractive index, 288.15 K	refractive index, 298.15 K	refractive index, 308.15 K	refractive index, 318.18 K
[1]	–	–	–	–	1.4382	1.4346	1.4312	1.426
[2]	945.5	936.28	927.05	917.79	–	–	–	–

Oc1ccccc1C=NCCN=Cc1ccccc1O [2,2'-[ethylenebis(nitrilomethylidyne)]diphenol] + ClC(Cl)Cl
mass density [kg/m3], [3]
Settings	m1 = 0.0099	m1 = 0.03	m1 = 0.0498	m1 = 0.0702	m1 = 0.0904	m1 = 0.1102	m1 = 0.1336	m1 = 0.1501	m1 = 0.19
283.15 K	1495.46	1493.53	1491.63	1489.69	1487.79	1485.95	1483.73	1482.28	1478.69
288.15 K	1486.15	1484.27	1482.44	1480.56	1478.71	1476.92	1474.75	1473.37	1469.85
293.15 K	1476.77	1474.97	1473.19	1471.36	1469.56	1467.84	1465.71	1464.38	1460.93
298.15 K	1467.41	1465.66	1463.95	1462.15	1460.41	1458.74	1456.68	1455.37	1452.05
